Experimental data as given in US20230104487A1, “11-(4-CHLOROPHENYL)-4-(2,3-DIHYDRO-1H-INDOLE-1-CARBONYL)-3,11-DIMETHYL-5,10,DIOXATRICYCLO[7.4.0.0,2,6,]TRIDECA-1,3,6,8-TETRAEN-13-ONE AND DERIVATIVES AS DESTABILIZER OF CRY1 FOR THE TREATMENT OF CIRCADIAN RHYTHM ASSOCIATED DISEASES AND DISORDERS” (KOC UNIVERSITESI, priority 2019, published 2023).
“Also recorded” adds a separate entry of the source.

Legend:
C57BL/6J mice = assay: Single dose toxicity study in mice; assay type: in vivo
Method: Male and female C57BL/6J mice, 8-12 weeks of age, weighing 18-24 g were used in the in vivo studies with FORMULA I. Mice were obtained from Kog University Animal Research Facility (KUTTAM) and experiments were conducted in accordance with the guidelines approved for animal experimental procedures by the Koc University Animal Research Local Ethics Committee (No: 2015/13).
Mice were housed in polystyrene cages up to four animals in the room equipped with temperature control (21±2° C.) and humidity (55±5%). Mice were housed under 12 h of light (L) in alternation with 12 h of darkness (D) (LD 12:12) prior to any intervention and the same lighting regimen continued to the end of the experiment. Water and food were provided ad libitum throughout the experiments. FORMULA I or vehicle were administered intraperitoneally to mice at the same time every day (three hours after light onset). […]
The dose levels to be used in the single dose toxicity study were selected according to the OECD Guidelines (Guidelines for the testing of chemicals, 2002). […] Body weight was measured every day as an index of general toxicity. […] The body temperatures of the mice were recorded by rectal homeothermic monitor (Harvard Apparatus, US) for 5 days following FORMULA I injection. […] Food intake and water consumption were also monitored for 14 days. […] Hematological parameters were analyzed in blood samples.

U2-OS Bmal1-dLuc cells = assay: Real-time monitoring of circadian rhythm, U2-OS Bmal1-dLuc; assay type: cell-based, human
Method: This assay was performed with two different equipment: Synergy H1 (BioTek) with 96-well plate and LumiCycle luminometer (Actimetrics) with 35 mm plates. Initial screening of molecules to determine their effect on the circadian period was performed in 96-well plate via Synergy H1. Clear 35-mm plates are used in LumiCycle luminometer which provides high resolution data describing the circadian oscillation. For 96-plate tests, 50000 U2-OS Bmal1-dLuc cells were seeded on an opaque 96-well plate and cultured overnight. Next day cells were reset by adding dexamethasone (DXM) ([…] final) for 2 h. Then medium is changed to bioluminescence recording media which contains the following in 1 L: DMEM powder (sigma D-2902, 10×1 L), 0.35 gr sodium bi-carbonate (tissue culture grade, sigma S5761), 3.5 gr D (+) glucose powder (tissue culture grade, sigma G7021), 10 mL 1M HEPES buffer (Gibco 15140-122), 2.5 mL Pen/Strep (100 ug/ml), 50 mL 5% FBS and up to 1 L sterile milliQ water. Luciferin is added freshly with 0.1 mM final concentration. Molecules were added to the bioluminescence recording media at desired concentration (0.5% final DMSO concentration). Plates were sealed with optically clear film to prevent evaporation and gas exchange thereby to maintain homeostasis of the cells.
Luminescence values were recorded at 32° C. for each 30 minutes with 15 seconds integration time via Synergy H1 luminometer for a week. For LumiCycle, 400×10^3 U2-OS Bmal1-dLuc or NIH3T3 mPer2-dLuc cells were seeded to 35 mm plates and then procedure given above was followed with a change in the last step. Plates were sealed with vacuum grease and placed to LumiCycle. Each plate was recorded continuously every 10 minutes for 70 seconds at 37° C. via photomultiplier tubes. Period and amplitude data were obtained from LumiCycle Analysis software. To detect the effect of FORMULA I in the absence of CRYs, Cry1^−/−/Cry2^−/− mouse embryonic fibroblasts (CRYDKO MEFs) transiently transfected with pGL3-Per2-Luc (luciferase reporter) were used. 3×10^5 CRYDKO cells were seeded in 35 mm clear plates. Next day, cells were transfected with 4000 ng pGL3-Per2-Luc via Fugene6 transfection reagent according to the manufacturer's instruction. In short, 3:1 ratio of Fugene6 in μl against transfected DNA amount in μg was kept in transfections. 72 h after transfection cells were synchronized with DXM for two hours. Then, medium was changed with lumicycle medium having DMSO or molecule, sealed with vacuum grease, and placed to LumiCycle.

## Cc1c(C(=O)N2CCc3ccccc32)oc2ccc3c(c12)C(=O)CC(C)(c1ccc(Cl)cc1)O3 (stereo not drawn) [FORMULA I, 11-(4-chlorophenyl)-4-(2,3-dihydro-1H-indole-1-carbonyl)-3,11-dimethyl-5,10,dioxatricyclo[7.4.0.0,2,6,]trideca-1,3,6,8-tetraen-13-one]
C57BL/6J mice; single doses of 5 and 50 mg/kg
  tolerability: well-tolerated
C57BL/6J mice; summary statement
  toxic effect in pharmacological studies with mice: no toxic effect
U2-OS Bmal1-dLuc cells; Homo sapiens, U2OS, U2-OS Bmal1-dLuc, read-out: EC50 of period lengthening and rhythm dampening
  EC50: ~6.5 µM
U2-OS Bmal1-dLuc cells; U2-OS Bmal1-dLuc
  activity / dose responsive effect on circadian rhythm: showed the best dose responsive effect
U2-OS Bmal1-dLuc cells; dose-dependent
  effect on amplitude of the rhythm: dampened the rhythm
  effect on period of circadian rhythm: significantly lengthened the period; also recorded: lengthened the circadian rhythm dose dependently
